Data published in patent US10894793B2, “Bicyclic pyridine, pyrazine, and pyrimidine derivatives as PI3K beta inhibitors” (Janssen Pharmaceutica NV, priority 2016, dated 2021).

Columns and labels:
[1] = tested on: Akt phosphorylated at Thr308 in PC-3 cells; assay: Cellular assay: phosphorylation of Akt (Thr308) in PC-3 cells, MSD ELISA; format: cell-based; settings: Homo sapiens, PC-3, 1 h, 60 min compound incubation, read-out: IC50 pAkt_Thr308
Protocol: (§1) Cellular activity of PI3Kβ inhibitors was determined by quantifying the phosphorylation of Akt in PC-3 cells. Akt phosphorylated at Ser473 and Thr308 were measured using an enzyme-linked immunosorbent assay (ELISA; Meso Scale Discovery (MSD), Gaithersburg, Md.) and specific primary antibodies from MSD.
(§2) On day 1, PC3 cells (ATCC #[…]) were seeded into PerkinElmer MW96 plates at 25.000 cells per well, in 75 μl complete culture medium (DMEM high glucose, AQmedia™, D0819, Sigma-Aldrich) containing 10% heat inactivated FCS and incubated at 37° C., […] during 24 hours. On day 2, compound or DMSO (0.3%) was added and cells were further incubated for 60 min at 37° C., 5% CO2 in a total volume of 100 μl of medium.
(§3) The phosphoprotein assay was executed according to vendor instructions in the Phospho-Akt (Ser473) Assay Whole Cell Lysate Kit (MSD #K15100D-3) and the Phospho-Akt (Thr308) Assay Whole Cell Lysate Kit (MSD #K151DYD-3) using the lysis, blocking and wash buffer provided.
(§4) Briefly, at the end of the cell treatment period, media were removed by aspiration and adherent cells were lysed in 50 μl ice-cold lysis buffer. MSD plates are supplied pre-coated with capture antibodies for Phospho-Akt (Ser473 and Thr308). After blocking, lysates from tissue culture plates were added and plates were washed. Then, a solution containing the detection antibody (anti-total Akt conjugated with an electrochemiluminescent compound-MSD Sulfo-tag label) was added. The signals were detected using an MSD SECTOR Imager 6000 and are proportional to the phospho-Akt titres.
(§5) Data were processed. The percentage of inhibition was plotted against the log concentration of test compounds, and the sigmoidal log concentration-effect curve of best fit was calculated by nonlinear regression analysis. From these concentration-response curves, the IC50 values were calculated. Five concentrations were used for curve fitting.

[2] = target: T1, PIK3Cα_h (Homo sapiens, UniProt P42336); assay: Enzyme binding assay (KINOMEscan); settings: DiscoveRx
T1 construct: purchased DiscoveRx Corporation
Protocol: (§6) Enzyme Binding Assays (KINOMEscan®)
(§7) Kinase enzyme binding affinities of compounds disclosed herein were determined using the KINOMEscan technology performed by DiscoveRx Corporation, San Diego, Calif., USA (www.kinomescan.com). Table A reports the obtained Kd values (nM), with the Kd being the inhibitor binding constant: […]

[3] = target: T2, PIK3Cγ_h (Homo sapiens, UniProt P48736); assay: Enzyme binding assay (KINOMEscan); settings: DiscoveRx
T2 construct: purchased DiscoveRx Corporation
Protocol: as §6, §7

[4] = target: T3, PIK3Cδ_h (Homo sapiens, UniProt O00329); assay: Enzyme binding assay (KINOMEscan); settings: DiscoveRx
T3 construct: purchased DiscoveRx Corporation
T3 sequence (O00329 1-1044): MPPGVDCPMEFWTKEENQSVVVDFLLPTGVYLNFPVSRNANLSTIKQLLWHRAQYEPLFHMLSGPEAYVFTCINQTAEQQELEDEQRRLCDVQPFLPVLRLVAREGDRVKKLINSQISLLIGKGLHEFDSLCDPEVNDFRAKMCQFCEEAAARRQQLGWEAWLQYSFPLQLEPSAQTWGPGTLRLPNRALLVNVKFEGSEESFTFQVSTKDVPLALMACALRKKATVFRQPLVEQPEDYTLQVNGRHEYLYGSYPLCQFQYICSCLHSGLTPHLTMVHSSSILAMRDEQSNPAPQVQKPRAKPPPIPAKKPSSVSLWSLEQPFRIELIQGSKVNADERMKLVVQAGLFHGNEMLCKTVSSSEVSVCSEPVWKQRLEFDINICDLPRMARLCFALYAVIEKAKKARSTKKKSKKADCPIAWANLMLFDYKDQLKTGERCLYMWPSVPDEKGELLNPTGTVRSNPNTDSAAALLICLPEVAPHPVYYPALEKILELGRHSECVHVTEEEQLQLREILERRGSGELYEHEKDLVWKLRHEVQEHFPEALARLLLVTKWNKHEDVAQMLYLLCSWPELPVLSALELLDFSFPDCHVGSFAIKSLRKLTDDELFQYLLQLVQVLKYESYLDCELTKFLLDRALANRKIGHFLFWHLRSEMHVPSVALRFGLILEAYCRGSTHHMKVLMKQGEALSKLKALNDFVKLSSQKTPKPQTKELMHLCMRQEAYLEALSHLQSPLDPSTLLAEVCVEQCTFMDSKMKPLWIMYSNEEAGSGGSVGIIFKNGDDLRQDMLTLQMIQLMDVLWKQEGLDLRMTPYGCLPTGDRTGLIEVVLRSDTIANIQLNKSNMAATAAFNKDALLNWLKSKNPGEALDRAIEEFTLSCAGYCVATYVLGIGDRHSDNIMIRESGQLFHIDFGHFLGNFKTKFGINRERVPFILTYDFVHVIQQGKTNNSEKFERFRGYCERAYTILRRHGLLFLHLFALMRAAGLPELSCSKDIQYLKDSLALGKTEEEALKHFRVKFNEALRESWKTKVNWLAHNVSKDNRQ
Protocol: as §6, §7

[5] = target: T4, MTOR_h (Homo sapiens, UniProt P42345); assay: Enzyme binding assay (KINOMEscan); settings: DiscoveRx
T4 construct: purchased DiscoveRx Corporation
Protocol: as §6, §7

[6] = target: T5, PIK3Cβ_h (Homo sapiens, UniProt P42338); assay: Enzyme binding assay (KINOMEscan); settings: DiscoveRx
T5 construct: purchased DiscoveRx Corporation
Protocol: as §6, §7

[7] = tested on: Akt phosphorylated at Ser473 in PC-3 cells; assay: Cellular assay: phosphorylation of Akt (Ser473) in PC-3 cells, MSD ELISA; format: cell-based; settings: Homo sapiens, PC-3, 1 h, 60 min compound incubation, read-out: IC50 pAkt_S473
Protocol: as §1, §2, §3, §4, §5

T1 sequence (P42336 whole entry): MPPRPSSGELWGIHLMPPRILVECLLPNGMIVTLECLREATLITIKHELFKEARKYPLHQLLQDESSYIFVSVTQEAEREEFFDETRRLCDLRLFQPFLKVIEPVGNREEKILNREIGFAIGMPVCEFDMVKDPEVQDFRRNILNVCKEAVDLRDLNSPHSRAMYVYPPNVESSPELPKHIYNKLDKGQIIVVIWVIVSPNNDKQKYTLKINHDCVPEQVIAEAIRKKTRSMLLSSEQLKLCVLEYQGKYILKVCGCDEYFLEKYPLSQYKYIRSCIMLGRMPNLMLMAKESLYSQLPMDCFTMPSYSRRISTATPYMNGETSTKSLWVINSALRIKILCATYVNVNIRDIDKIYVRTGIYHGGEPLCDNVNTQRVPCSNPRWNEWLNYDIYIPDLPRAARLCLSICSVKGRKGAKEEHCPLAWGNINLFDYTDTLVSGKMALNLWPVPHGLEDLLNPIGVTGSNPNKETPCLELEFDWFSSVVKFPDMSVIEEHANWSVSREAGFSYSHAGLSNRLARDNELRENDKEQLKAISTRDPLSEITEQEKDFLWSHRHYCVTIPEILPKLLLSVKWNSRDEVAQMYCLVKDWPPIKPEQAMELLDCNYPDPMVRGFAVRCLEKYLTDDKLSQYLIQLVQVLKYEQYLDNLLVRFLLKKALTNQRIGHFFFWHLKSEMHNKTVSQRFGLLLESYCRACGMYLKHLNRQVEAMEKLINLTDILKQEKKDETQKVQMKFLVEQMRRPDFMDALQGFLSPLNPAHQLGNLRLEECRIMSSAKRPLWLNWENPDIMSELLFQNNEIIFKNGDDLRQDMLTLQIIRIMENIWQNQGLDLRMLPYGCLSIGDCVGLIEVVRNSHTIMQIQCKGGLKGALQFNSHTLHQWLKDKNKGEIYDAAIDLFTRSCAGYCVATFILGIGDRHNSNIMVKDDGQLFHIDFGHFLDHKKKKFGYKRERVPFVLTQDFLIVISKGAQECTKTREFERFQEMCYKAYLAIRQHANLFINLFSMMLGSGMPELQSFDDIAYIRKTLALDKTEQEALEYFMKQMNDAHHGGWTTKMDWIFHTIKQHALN
T2 sequence (P48736 whole entry): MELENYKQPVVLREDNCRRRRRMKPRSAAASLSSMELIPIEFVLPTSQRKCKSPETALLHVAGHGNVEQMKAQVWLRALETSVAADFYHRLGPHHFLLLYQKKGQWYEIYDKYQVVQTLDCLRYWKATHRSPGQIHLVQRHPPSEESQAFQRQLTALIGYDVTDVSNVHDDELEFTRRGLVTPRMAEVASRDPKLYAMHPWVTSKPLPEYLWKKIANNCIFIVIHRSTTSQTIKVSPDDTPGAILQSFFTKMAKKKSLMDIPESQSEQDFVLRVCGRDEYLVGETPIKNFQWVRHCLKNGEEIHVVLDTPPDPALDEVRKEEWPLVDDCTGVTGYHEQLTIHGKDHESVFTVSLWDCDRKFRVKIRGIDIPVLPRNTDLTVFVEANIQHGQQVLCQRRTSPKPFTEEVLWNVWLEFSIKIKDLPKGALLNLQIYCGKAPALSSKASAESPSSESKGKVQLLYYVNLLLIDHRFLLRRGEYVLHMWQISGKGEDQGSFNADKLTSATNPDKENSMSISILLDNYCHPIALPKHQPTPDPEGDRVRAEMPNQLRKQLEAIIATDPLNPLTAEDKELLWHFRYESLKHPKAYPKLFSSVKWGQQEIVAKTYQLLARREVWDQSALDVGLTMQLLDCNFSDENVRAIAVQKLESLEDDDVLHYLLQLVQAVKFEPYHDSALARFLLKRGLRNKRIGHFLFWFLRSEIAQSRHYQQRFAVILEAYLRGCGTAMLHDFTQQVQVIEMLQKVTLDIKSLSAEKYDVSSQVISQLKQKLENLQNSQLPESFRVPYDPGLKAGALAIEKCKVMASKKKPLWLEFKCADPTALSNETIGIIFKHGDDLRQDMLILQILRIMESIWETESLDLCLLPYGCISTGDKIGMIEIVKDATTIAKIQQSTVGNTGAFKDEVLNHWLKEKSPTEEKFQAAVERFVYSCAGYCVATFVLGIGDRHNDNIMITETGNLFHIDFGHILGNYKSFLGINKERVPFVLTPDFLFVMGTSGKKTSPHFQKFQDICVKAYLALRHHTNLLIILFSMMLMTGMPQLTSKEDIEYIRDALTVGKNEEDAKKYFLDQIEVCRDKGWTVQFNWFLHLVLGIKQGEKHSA
T5 sequence (P42338 whole entry): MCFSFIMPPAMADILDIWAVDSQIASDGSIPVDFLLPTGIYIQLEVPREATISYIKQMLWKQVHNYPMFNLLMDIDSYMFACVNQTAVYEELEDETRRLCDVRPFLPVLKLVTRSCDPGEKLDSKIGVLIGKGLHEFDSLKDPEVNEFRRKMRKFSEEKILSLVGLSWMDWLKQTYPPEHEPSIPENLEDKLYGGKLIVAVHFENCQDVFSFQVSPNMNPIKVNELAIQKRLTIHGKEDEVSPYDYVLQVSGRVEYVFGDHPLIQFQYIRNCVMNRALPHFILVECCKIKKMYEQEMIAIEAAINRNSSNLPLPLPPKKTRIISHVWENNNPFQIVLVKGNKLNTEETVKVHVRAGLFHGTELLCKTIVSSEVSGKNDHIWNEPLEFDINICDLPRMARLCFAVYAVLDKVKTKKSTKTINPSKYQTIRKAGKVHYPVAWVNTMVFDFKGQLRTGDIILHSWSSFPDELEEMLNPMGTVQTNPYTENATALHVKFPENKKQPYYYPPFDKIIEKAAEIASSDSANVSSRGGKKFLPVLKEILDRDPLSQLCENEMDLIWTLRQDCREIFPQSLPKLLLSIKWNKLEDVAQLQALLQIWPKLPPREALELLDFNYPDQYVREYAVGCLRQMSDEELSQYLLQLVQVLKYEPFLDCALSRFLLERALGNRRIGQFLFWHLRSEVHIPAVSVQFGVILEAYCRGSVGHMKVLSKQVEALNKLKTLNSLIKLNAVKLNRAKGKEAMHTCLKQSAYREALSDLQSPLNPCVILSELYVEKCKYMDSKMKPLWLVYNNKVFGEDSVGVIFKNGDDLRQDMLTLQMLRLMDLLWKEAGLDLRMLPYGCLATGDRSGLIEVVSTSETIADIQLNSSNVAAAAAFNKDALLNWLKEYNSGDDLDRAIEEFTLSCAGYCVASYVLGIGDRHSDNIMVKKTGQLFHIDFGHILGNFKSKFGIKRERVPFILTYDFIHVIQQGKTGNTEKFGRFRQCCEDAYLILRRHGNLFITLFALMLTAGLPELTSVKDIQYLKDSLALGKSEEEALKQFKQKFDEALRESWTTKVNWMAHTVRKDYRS

Structure (SMILES)	IC50 [1] [nM]	melting point [°C]	Kd [2] [nM]	Kd [3] [nM]	Kd [4] [nM]	Kd [5] [nM]	Kd [6] [nM]	IC50 [7] [nM]
Cc1c(Cc2c(CN3CC4(C3)CS(=O)(=O)C4)nc3ncc(N4CCOCC4)cn23)cccc1C(F)(F)F [Compound 21]	17	228	1480	> 30200	123	> 30200	0.4	15
OCc1nc2ncc(N3CCOCC3)cn2c1Cc1cccc(F)c1C1CCNCC1 [Compound 49]	> 513	224	2570	15800	2240	> 30200	15	> 513
Cc1c(Cc2c(CO)nc3c(N)cc(C4=CCOCC4)cn23)cccc1C(F)(F)F [Compound 46]	18	223	8430	6460	1060	5890	16	32
CCOC(=O)Cc1nc2cnc(N3CCOCC3)cn2c1Cc1cccc(C(F)(F)F)c1C [Compound 17]	–	135	–	–	–	–	–	–
Cc1c(Cc2c(CN3CCS(=O)(=O)CC3)nc3ncc(N4CCOCC4)cn23)cccc1C(F)(F)F [Compound 22]	~79	225	1440	> 30200	631	> 30200	3.1	214
Cc1nc2c(-c3ccn[nH]3)nc(C3=CCOCC3)cn2c1Cc1cccc(C(F)(F)F)c1C [Compound 1]	7	240	288	1060	69	935	1.6	14
Cc1nc2c(CO)cc(C3=CCOCC3)cn2c1Cc1cccc(C(F)(F)F)c1C [Compound 44]	83	–	7240	21400	562	17800	1.7	135
Cc1c(Cc2c(C(=O)N3C[C@@H](C)N[C@@H](C)C3)nc3ncc(N4CCOCC4)cn23)cccc1C(F)(F)F [Compound 23]	~219	130	> 30200	> 30200	1480	> 30200	8.7	389
Cc1nc2c(-c3c[nH]cn3)nc(C3=CCOCC3)cn2c1Cc1cccc(C(F)(F)F)c1C [Compound 6]	59	197	343	4700	682	2170	5.5	185
Cc1c(Cc2c(CN3CCCC4(CNC4)C3)nc3ncc(N4CCOCC4)cn23)cccc1C(F)(F)F [Compound 20]	> 513	–	> 30200	> 30200	7240	> 30200	76	> 513
Cc1c(Cc2c(CN3CC4(C3)CS(=O)(=O)C4)nc3ccc(C4=CCOCC4)cn23)cccc1C(F)(F)F [Compound 40]	~10	–	302	> 30200	44	12900	0.3	15
Cc1c(Cc2c(CN3C[C@@H](C)N[C@@H](C)C3)nc3ncc(N4CCOCC4)cn23)cccc1C(F)(F)F [Compound 19]	186	263	16600	> 30200	1230	> 30200	4.2	380
CN1CCC(c2c(F)cccc2Cc2c(CO)nc3ncc(N4CCOCC4)cn23)CC1 [Compound 48]	> 513	222	9550	12900	4790	> 30200	49	> 513
Cc1c(Cc2c(CNCCCO)nc3ccc(N4CCOCC4)cn23)cccc1C(F)(F)F [Compound 35]	89	–	22400	> 30200	575	21900	5.8	74
Cc1nc2c(C(N)=O)nc(C3=CCOCC3)cn2c1Cc1cccc(C(F)(F)F)c1C [Compound 5]	~65	257	1820	6310	891	12300	4.7	~87
Cc1c(Cc2c(CN3CCC(CO)CC3)nc3cnc(N4CCOCC4)cn23)cccc1C(F)(F)F [Compound 10]	> 513	198	> 30200	> 30200	4270	> 30200	41	> 513
Cc1nc2ccc(N3CCOCC3)cn2c1Cc1cccc(C(F)(F)F)c1C [Compound 27]	417	–	9550	> 30200	2570	> 30200	363	> 513
Cc1c(Cc2c(CCO)nc3cnc(N4CCOCC4)cn23)cccc1C(F)(F)F [Compound 13]	> 513	142	20400	> 30200	14100	> 30200	126	> 513
Cc1c(Cc2c(CN3CCC4(CCCS4(=O)=O)C3)nc3ncc(N4CCOCC4)cn23)cccc1C(F)(F)F (centres unmarked) [Compound 26]	71	–	4170	> 30200	697	> 30200	6.8	479
Cc1c(Cc2c(CN3CC4(CCN4)C3)nc3ccc(N4CCOCC4)cn23)cccc1C(F)(F)F [Compound 32]	~178	–	7240	8510	324	27500	2.2	191
